Experimental data reported in US20250276120A1, “METHOD FOR PREVENTING COAGULATION IN PATIENTS WITH IMPLANTED CARDIAC DEVICES” (Cadrenal Therapeutics, Inc., priority 2024, published 2025).
Like-named read-outs stand apart in the source and are kept apart here.

Tests used:
[1] = pharmacokinetic study with fluconazole (CYP2C9 inhibitor) co-administration in healthy volunteers; settings: fluconazole co-administered
[2] = human, in vivo
cytochrome P450 system = settings: cited from earlier work
[3] = molecular target: T1, human carboxylesterase 2 (hCE-2) (Homo sapiens, UniProt O00748); settings: cited from earlier work
T1 sequence (O00748 27-559): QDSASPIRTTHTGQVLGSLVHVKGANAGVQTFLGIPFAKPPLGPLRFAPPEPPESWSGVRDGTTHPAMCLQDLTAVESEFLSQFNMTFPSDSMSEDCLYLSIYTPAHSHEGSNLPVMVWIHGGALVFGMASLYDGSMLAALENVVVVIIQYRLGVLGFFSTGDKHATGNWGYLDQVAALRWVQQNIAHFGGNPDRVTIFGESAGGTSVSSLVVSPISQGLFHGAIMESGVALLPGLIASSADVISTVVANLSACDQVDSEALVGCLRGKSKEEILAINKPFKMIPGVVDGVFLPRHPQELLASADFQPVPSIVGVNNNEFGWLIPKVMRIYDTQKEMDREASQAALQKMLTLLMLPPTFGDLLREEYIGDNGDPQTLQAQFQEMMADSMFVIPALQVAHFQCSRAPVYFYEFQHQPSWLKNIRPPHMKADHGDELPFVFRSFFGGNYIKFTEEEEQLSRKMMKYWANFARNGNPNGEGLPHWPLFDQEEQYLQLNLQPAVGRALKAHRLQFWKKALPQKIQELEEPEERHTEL

[4] = time-within-therapeutic range (TTR), supporting clinical data; format: in vivo, human; settings: stable anticoagulation with tecarfarin
Description: Tecarfarin is not metabolized via the cytochrome P450 system, but rather via an alternate pathway and enzyme (h-CE2) that is abundant throughout the body and essentially insaturable. Tecarfarin has a reliable and stable PK profile and PD response (anticoagulation), a well-understood mechanism of action (similar to other VKAs), with supporting clinical data.

[5] = Phase 2/3 randomized, double-blind, active-control study tecarfarin versus warfarin, TTR as primary efficacy endpoint; format: in vivo, human
[6] = aspirin added to warfarin, patients with atrial fibrillation already on warfarin; cited from earlier work

Q: Which “effect of fluconazole co-administration on drug exposure” value [1] does the source give for CC(=O)C[C@H](c1ccccc1)c1c(O)c2ccccc2oc1=O [R-warfarin] here?
A: Its value is “significantly prolonged”.

Q: For CC(=O)CC(c1ccccc1)c1c(O)c2ccccc2oc1=O (racemic) [warfarin], which “effect of CKD on the effect of CYP2C9 genetic variation on exposure” value [2] is on record?
A: The value was “significantly increased”.

Q: And the “mean plasma concentrations in subjects with CKD versus healthy subjects” value [2]?
A: Its value is “significantly higher”.

Q: What about the “metabolism by the cytochrome P450 system” value (cytochrome P450 system) of the same compound?
A: Its value is “metabolized by multiple different isoenzymes of the cytochrome P450 system (primarily CYP2C9, CYP1A2 and CYP3A4)”.

Q: With CC(OC(=O)c1ccc(Cc2c(O)c3ccccc3oc2=O)cc1)(C(F)(F)F)C(F)(F)F [Tecarfarin, 1,1,1,3,3,3-hexafluoro-2-methyl-2-propanyl 4-[(4-hydroxy-2-oxo-2H-chromen-3-yl)methyl] benzoate] as the compound, how does the “metabolic pathway (carboxylesterase)” value [3] read?
A: The value was “hydrolysis via by human carboxylesterase 2 (hCE-2)”.

Q: What about the “time-within-therapeutic range (TTR)” value [4] of the same compound?
A: The value was over 72%.

Q: What about the “effect of fluconazole co-administration on PK” value [1] of the same compound?
A: The value was “unaffected”.

Q: And the “metabolism by the cytochrome P450 system” value (cytochrome P450 system)?
A: Its value is “does not proceed via the cytochrome P450 system”.

Q: And the “TTR on tecarfarin compared to warfarin” value ([5]; CYP2C9 genotypic variants on CYP2C9 inhibitors, small number of subjects)?
A: The value was “higher”.

Q: And the “percent of time-within-therapeutic-range (TTR), tecarfarin versus warfarin” value ([5]; general population requiring chronic oral anticoagulation, blinded treatment)?
A: The value was “did not differ significantly”.

Q: And the “TTR, tecarfarin versus warfarin” value ([5]; subjects with CYP2C9 wild type genotype)?
A: Its value is “significant improvement”.

Q: What about the “change of elimination half-life (t1/2) in CKD” value (CKD versus healthy subjects) of the same compound?
A: The value was “decreased”.

Q: What about the “mean plasma concentrations in subjects with CKD versus healthy subjects” value (CKD versus healthy subjects) of the same compound?
A: The value was “not significantly higher”.

Q: For CC(=O)Oc1ccccc1C(=O)O [aspirin], which “incremental rate of major bleeding” value [6] is on record?
A: Its value is 1.6 % per year.

Q: For CC(=O)C[C@@H](c1ccccc1)c1c(O)c2ccccc2oc1=O [(S)-warfarin, reference compound], which “effect of fluconazole co-administration on drug exposure” value [1] is on record?
A: Its value is “significantly prolonged”.

Q: What about the “mean plasma concentrations in subjects with CKD versus healthy subjects” value (CKD versus healthy subjects) of the same compound?
A: Its value is “significantly higher”.

Q: What about the “effect of CKD on the effect of CYP2C9 genetic variation on exposure” value (CKD, CYP2C9 genotype) of the same compound?
A: The value was “significantly increased”.
